Where “and” joins values, the source holds several entries; their conditions need not be identical. Equal entries are not always repeated.
Tests used:
[1] = Pharmacokinetic evaluation of bevirimat HPβCD formulation, intravenous, male Cynomolgus monkeys
Experimental: Six male Cynomolgus monkeys having an initial body weight of about 3.5 to about 4.5 kg are allowed 7 days to acclimate to their individual housing units. Monkeys are supplied with water and a commercial diet ad libitum prior to the study initiation. Food is withheld from the monkeys for a minimum of twelve hours before the study and during the study until four hours postdose when food is returned. Water is supplied ad libitum.
Test formulations are administered to the monkeys at time 0 on appropriate days. Test formulations will be dosed orally via oral gavage or intravenously.
Samples are drawn at the frequencies indicated below. Each blood sample (0.5 mL) is collected from the monkey's saphenous vein via a butterfly catheter and placed into a chilled polypropylene tube containing sodium heparin as the anticoagulant. Blood samples are centrifuged at a temperature of 4° C. at a speed of 3,000 rpm for 15 minutes. All samples are maintained chilled throughout processing. Plasma is collected after centrifugation, pipetted into a 2-mL polypropylene microtube, and frozen on dry-ice pending analytical evaluation.

[2] = Solubility of bevirimat and bevirimat dimeglumine in single vehicles; conditions: in 100% water, 100% saline, 100% dextrose, 100% PEG 400, and 25% Poloxamer 188
[3] = 2.5 mg FAE/mL in 10% HPβCD+3% Mannitol in water, 10 mg FAE/monkey intravenous injection, monkeys 115,116,120,AVG
[4] = male, cynomolgus monkey, plasma, iv, 10 mg

C=C(C)[C@@H]1CC[C@]2(C(=O)O)CC[C@]3(C)[C@H](CC[C@@H]4[C@@]5(C)CC[C@H](OC(=O)CC(C)(C)C(=O)O)C(C)(C)[C@@H]5CC[C@]43C)[C@@H]12 [Bevirimat, 3-O-(3′,3′-dimethylsuccinyl)betulinic acid]
AUCall [1, 3]: 81549 ng·h/mL and 84743 ng·h/mL | C0 [1, 3]: 54673 ng/mL and 39400 ng/mL | CL [1, 3]: 0.383 mL/min/kg and 0.533 mL/min/kg and 0.417 mL/min/kg | Dnzed AUCall [1, 3]: 46879 ng·h/mL/mg/kg and 41590 ng·h/mL/mg/kg and 31505 ng·h/mL/mg/kg and 39991 ng·h/mL/mg/kg | t1/2 [1, 3]: 24.7 h and 15.5 h and 18.3 h | Plasma Concentration ([1]; 0.033 hr, 2.5 mg FAE/mL in 10% HPβCD+3% Mannitol in water, 10 mg FAE/monkey intravenous injection, monkeys 115,116,120,AVG): 39400 ng/mL | Plasma Concentration ([1]; 0.25 hr, 2.5 mg FAE/mL in 10% HPβCD+3% Mannitol in water, 10 mg FAE/monkey intravenous injection, monkeys 115,116,120,AVG): 41600 ng/mL and 23100 ng/mL and 32333 ng/mL | Plasma Concentration ([1]; 0.50 hr, 2.5 mg FAE/mL in 10% HPβCD+3% Mannitol in water, 10 mg FAE/monkey intravenous injection, monkeys 115,116,120,AVG): 19800 ng/mL and 14800 ng/mL and 19967 ng/mL | Plasma Concentration ([1]; 1.0 hr, 2.5 mg FAE/mL in 10% HPβCD+3% Mannitol in water, 10 mg FAE/monkey intravenous injection, monkeys 115,116,120,AVG): 20200 ng/mL and 11700 ng/mL and 18233 ng/mL | Plasma Concentration ([1]; 12 hr, 2.5 mg FAE/mL in 10% HPβCD+3% Mannitol in water, 10 mg FAE/monkey intravenous injection, monkeys 115,116,120,AVG): 384 ng/mL and 404 ng/mL and 517 ng/mL | Plasma Concentration ([1]; 24 hr, 2.5 mg FAE/mL in 10% HPβCD+3% Mannitol in water, 10 mg FAE/monkey intravenous injection, monkeys 115,116,120,AVG): 367 ng/mL and 245 ng/mL and 320 ng/mL | Plasma Concentration ([1]; 48 hr, 2.5 mg FAE/mL in 10% HPβCD+3% Mannitol in water, 10 mg FAE/monkey intravenous injection, monkeys 115,116,120,AVG): 148 ng/mL and 81.0 ng/mL and 121 ng/mL | Plasma Concentration ([1]; 72 hr, 2.5 mg FAE/mL in 10% HPβCD+3% Mannitol in water, 10 mg FAE/monkey intravenous injection, monkeys 115,116,120,AVG, BLOQ=below 50 ng/mL): BLOQ | concentration at 0.033 hr ([1]; male, cynomolgus monkey, in vivo, iv, 10 mg FAE/monkey, Plasma concentration, 0.033 hr, 2.5 mg FAE/mL in 10% HPβCD+3% Mannitol in water, 10 mg FAE/monkey intravenous injection, monkeys 115,116,120,AVG): 50600 ng/mL | concentration at 0.25 hr ([1]; male, cynomolgus monkey, in vivo, iv, 10 mg FAE/monkey, Plasma concentration, 0.25 hr, 2.5 mg FAE/mL in 10% HPβCD+3% Mannitol in water, 10 mg FAE/monkey intravenous injection, monkeys 115,116,120,AVG): 32300 ng/mL | concentration at 0.5 hr ([1]; male, cynomolgus monkey, in vivo, iv, 10 mg FAE/monkey, Plasma concentration, 0.50 hr, 2.5 mg FAE/mL in 10% HPβCD+3% Mannitol in water, 10 mg FAE/monkey intravenous injection, monkeys 115,116,120,AVG): 25300 ng/mL | concentration at 1 hr ([1]; male, cynomolgus monkey, in vivo, iv, 10 mg FAE/monkey, Plasma concentration, 1.0 hr, 2.5 mg FAE/mL in 10% HPβCD+3% Mannitol in water, 10 mg FAE/monkey intravenous injection, monkeys 115,116,120,AVG): 22800 ng/mL | concentration at 12 hr ([1]; male, cynomolgus monkey, in vivo, iv, 10 mg FAE/monkey, Plasma concentration, 12 hr, 2.5 mg FAE/mL in 10% HPβCD+3% Mannitol in water, 10 mg FAE/monkey intravenous injection, monkeys 115,116,120,AVG): 762 ng/mL | concentration at 24 hr ([1]; male, cynomolgus monkey, in vivo, iv, 10 mg FAE/monkey, Plasma concentration, 24 hr, 2.5 mg FAE/mL in 10% HPβCD+3% Mannitol in water, 10 mg FAE/monkey intravenous injection, monkeys 115,116,120,AVG): 347 ng/mL | concentration at 48 hr ([1]; male, cynomolgus monkey, in vivo, iv, 10 mg FAE/monkey, Plasma concentration, 48 hr, 2.5 mg FAE/mL in 10% HPβCD+3% Mannitol in water, 10 mg FAE/monkey intravenous injection, monkeys 115,116,120,AVG): 134 ng/mL | AUC ([1]; male, cynomolgus monkey, in vivo, iv, 10 mg, AUCall, 2.5 mg FAE/mL in 10% HPβCD+3% Mannitol in water, 10 mg FAE/monkey intravenous injection, monkeys 115,116,120,AVG): 114000 ng·h/mL | C0 ([1]; male, cynomolgus monkey, in vivo, iv, 10 mg, C0, 2.5 mg FAE/mL in 10% HPβCD+3% Mannitol in water, 10 mg FAE/monkey intravenous injection, monkeys 115,116,120,AVG): 54200 ng/mL | half-life ([1]; male, cynomolgus monkey, in vivo, iv, 10 mg, t1/2, 2.5 mg FAE/mL in 10% HPβCD+3% Mannitol in water, 10 mg FAE/monkey intravenous injection, monkeys 115,116,120,AVG): 14.7 h | AUC [1, 4]: 58300 ng·h/mL | C0 [1, 4]: 49400 ng/mL | Tmax [1, 4]: 0 h | clearance ([1]; male, cynomolgus monkey, plasma, iv, 10 mg, CL, 2.5 mg FAE/mL in 10% HPβCD+3% Mannitol in water, 10 mg FAE/monkey intravenous injection, monkeys 115,116,120,AVG): 0.333 mL/min/kg | solubility (in words) [2]: poorly soluble

— patent US20100216751A1 (priority 2007, published 2010)
